What was measured:
Type in all cases: subcellular
[1] = biological target: Sodium-dependent serotonin transporter (Rattus norvegicus) (UniProt P31652); assay: Inhibition of re-uptake of [3H]5-hydroxytryptamine at SERT in Wistar rat cortical synaptosomes by liquid scintillation counting relative to untreated control; details: concentration not given here
[2] = biological target: Transporter (Rattus norvegicus) (UniProt F1LNR9); assay: Inhibition of re-uptake of [3H]noradrenaline at NET in Wistar rat hippocampal synaptosomes by liquid scintillation counting relative to untreated control; details: Hippocampus, concentration not given here
Chain of Transporter (Rattus norvegicus) (F1LNR9 as listed by the source): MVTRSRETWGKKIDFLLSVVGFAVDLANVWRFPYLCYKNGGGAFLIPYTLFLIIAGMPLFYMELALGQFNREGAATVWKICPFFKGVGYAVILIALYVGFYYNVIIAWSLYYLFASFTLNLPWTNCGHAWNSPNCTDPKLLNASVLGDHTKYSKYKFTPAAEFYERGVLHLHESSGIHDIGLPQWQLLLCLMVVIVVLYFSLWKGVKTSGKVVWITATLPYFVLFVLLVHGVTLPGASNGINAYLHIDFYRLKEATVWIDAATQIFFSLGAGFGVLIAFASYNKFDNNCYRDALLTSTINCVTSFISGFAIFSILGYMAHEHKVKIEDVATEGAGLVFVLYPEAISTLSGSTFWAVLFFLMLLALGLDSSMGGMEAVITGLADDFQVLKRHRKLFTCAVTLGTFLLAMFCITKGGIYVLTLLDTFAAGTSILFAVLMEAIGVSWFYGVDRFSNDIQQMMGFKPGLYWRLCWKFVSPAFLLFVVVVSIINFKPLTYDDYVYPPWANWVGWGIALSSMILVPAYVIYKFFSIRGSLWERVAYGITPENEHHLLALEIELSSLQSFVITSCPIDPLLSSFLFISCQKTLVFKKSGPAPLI

[3] = biological target: Sodium-dependent dopamine transporter (Rattus norvegicus) (UniProt P23977); assay: Inhibition of re-uptake of [3H]dopamine at DAT in Wistar rat corpus striatum synaptosomes by liquid scintillation counting relative to untreated control; details: concentration not given here
Chain of Sodium-dependent dopamine transporter (Rattus norvegicus) (P23977 whole entry): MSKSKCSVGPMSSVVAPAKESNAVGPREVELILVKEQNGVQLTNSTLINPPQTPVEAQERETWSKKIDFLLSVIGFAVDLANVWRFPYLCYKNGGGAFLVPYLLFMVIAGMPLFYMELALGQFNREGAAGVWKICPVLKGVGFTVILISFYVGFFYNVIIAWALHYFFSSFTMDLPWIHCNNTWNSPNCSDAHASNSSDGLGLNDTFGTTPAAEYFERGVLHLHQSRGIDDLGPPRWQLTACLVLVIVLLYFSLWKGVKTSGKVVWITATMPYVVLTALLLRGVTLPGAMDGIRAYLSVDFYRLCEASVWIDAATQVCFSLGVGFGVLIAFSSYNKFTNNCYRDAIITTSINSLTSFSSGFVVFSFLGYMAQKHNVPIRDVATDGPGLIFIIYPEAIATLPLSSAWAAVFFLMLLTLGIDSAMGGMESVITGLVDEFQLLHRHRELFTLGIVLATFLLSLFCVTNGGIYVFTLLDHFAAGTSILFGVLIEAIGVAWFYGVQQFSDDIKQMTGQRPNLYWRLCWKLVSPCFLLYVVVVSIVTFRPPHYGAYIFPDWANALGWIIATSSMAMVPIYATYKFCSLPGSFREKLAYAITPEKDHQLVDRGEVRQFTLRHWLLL

Measured: inhibition

Chain of Sodium-dependent serotonin transporter (Rattus norvegicus) (P31652 whole entry): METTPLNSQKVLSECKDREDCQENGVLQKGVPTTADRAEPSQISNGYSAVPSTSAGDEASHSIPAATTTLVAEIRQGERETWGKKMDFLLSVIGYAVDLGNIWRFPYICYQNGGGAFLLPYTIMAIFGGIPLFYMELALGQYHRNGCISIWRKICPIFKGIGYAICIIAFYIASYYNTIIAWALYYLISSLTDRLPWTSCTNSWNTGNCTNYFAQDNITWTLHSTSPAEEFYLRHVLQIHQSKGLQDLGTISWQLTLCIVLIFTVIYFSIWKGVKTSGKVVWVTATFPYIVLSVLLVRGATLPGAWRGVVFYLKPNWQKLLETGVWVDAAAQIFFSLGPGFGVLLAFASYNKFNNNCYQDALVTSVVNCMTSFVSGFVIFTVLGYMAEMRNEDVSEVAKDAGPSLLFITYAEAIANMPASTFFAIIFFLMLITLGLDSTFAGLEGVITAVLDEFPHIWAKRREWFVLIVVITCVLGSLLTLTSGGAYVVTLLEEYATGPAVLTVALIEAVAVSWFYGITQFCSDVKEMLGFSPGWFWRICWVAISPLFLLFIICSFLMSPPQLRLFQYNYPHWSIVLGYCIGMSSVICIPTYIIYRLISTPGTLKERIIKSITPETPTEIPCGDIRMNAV

COC[C@@H]1[C@@H](c2ccc(Cl)c(Cl)c2)C[C@@H]2CC[C@H]1N2C
25 to 75%: all assays above

CN1[C@H]2CC[C@@H]1[C@H](CSc1ccccc1)[C@@H](c1ccc(Cl)c(Cl)c1)C2
25 to 75%: all assays above

CCOC[C@@H]1[C@@H](c2ccc(Cl)c(Cl)c2)C[C@@H]2CC[C@H]1N2C
25 to 75%: all assays above

Reference: ChEMBL document CHEMBL3880392, “Tropane-derivatives, their preparation and use” (2002)
